{
  "source": "patent US11534446B2",
  "about": "“Pharmaceutical composition comprising 3-beta-hydroxy-5-alpha-pregnan-20-one with improved storage and solubility properties” (ASARINA PHARMA AB, priority 2010, dated 2022)",
  "assay": "UC1010 concentration in 0.2 μm filtrate of suspensions in sesame oil with cholesterol (Example 77)",
  "type": "physicochemical",
  "details": "sesame oil suspension",
  "method": "Suspensions of 3-beta-hydroxy-5-alpha-pregnan-20-one were prepared for investigation of solubility as follows: cholesterol was first dissolved at room temperature in sesame oil at 10 and 20 mg/ml, respectively. Suspensions of 3-beta-hydroxy-5-alpha-pregnan-20-one in sesame oil with different amounts of cholesterol were prepared on a magnetic stirrer at about 500 rpm using a conventional Teflon coated stir bar, at room temperature for several days, with occasional cycling to 2-8° C. At this time, the particles have become substantially smaller. Thereafter, samples of the respective suspensions were filtered through a 0.2 μm filter and analyzed with regard to concentration of 3-beta-hydroxy-5-alpha-pregnan-20-one. The results are presented in Table 3 and FIG. 2 where it can be seen that increasing the amounts of cholesterol increases the soluble fraction of 3-beta-hydroxy-5-alpha-pregnan-20-one. […] FIGS. 3a and 3b show microscopy pictures taken at 5× enlargement of suspensions with a 3-beta-hydroxy-5-alpha-pregnan-20-one concentration of 10 mg/g and a cholesterol:3-beta-hydroxy-5-alpha-pregnan-20-one ratio of 1:1 immediately upon mixing (3a) and after several days of stirring (3b).",
  "data": [
    {"smiles": "CC(=O)[C@H]1CC[C@H]2[C@@H]3CC[C@H]4C[C@@H](O)CC[C@]4(C)[C@H]3CC[C@]12C", "note": "[3-beta-hydroxy-5-alpha-pregnan-20-one]", "values": [
      {"measurement": "3-beta-hydroxy-5-alpha-pregnan-20-one concentration in filtrate", "setting": "initial concentration 10 mg/g, weight ratio cholesterol to UC1010 0:1, 0.2 μm filter", "value": 1, "unit": "mg/mL"},
      {"measurement": "3-beta-hydroxy-5-alpha-pregnan-20-one concentration in filtrate", "setting": "initial concentration 10 mg/g, weight ratio cholesterol to UC1010 1:1, 0.2 μm filter", "value": 1.8, "unit": "mg/mL"},
      {"measurement": "3-beta-hydroxy-5-alpha-pregnan-20-one concentration in filtrate", "setting": "initial concentration 10 mg/g, weight ratio cholesterol to UC1010 2:1, 0.2 μm filter", "value": 2.2, "unit": "mg/mL"},
      {"measurement": "3-beta-hydroxy-5-alpha-pregnan-20-one concentration in filtrate", "setting": "initial concentration 40 mg/g, weight ratio cholesterol to UC1010 1:2, 0.2 μm filter", "value": 1.9, "unit": "mg/mL"},
      {"measurement": "3-beta-hydroxy-5-alpha-pregnan-20-one concentration in filtrate", "setting": "initial concentration 40 mg/g, weight ratio cholesterol to UC1010 1:4, 0.2 μm filter", "value": 1.4, "unit": "mg/mL"}
    ]}
  ]
}
